Earlier results on 19 compounds are cited in patent US20130281394A1, “Chemosensory Receptor Ligand-Based Therapies” (ELCELYX THERAPEUTICS, INC., priority 2010, published 2013).

Read-outs that look alike come from different tables or passages of the source.

Data set [1] deals with gut hormone release. As to conditions: instillation into the duodenum of humans.
The test system of data set [2] is gut hormone release. As to conditions: rats.
The conditions of data set [3]: in vivo.
For data set [4] the following is noted: rats.
The next data set has as its target T1, sweet receptor (Homo sapiens, UniProt Q7RTX0+Q8TE23).
T1 sequence (Q8TE23 20-839): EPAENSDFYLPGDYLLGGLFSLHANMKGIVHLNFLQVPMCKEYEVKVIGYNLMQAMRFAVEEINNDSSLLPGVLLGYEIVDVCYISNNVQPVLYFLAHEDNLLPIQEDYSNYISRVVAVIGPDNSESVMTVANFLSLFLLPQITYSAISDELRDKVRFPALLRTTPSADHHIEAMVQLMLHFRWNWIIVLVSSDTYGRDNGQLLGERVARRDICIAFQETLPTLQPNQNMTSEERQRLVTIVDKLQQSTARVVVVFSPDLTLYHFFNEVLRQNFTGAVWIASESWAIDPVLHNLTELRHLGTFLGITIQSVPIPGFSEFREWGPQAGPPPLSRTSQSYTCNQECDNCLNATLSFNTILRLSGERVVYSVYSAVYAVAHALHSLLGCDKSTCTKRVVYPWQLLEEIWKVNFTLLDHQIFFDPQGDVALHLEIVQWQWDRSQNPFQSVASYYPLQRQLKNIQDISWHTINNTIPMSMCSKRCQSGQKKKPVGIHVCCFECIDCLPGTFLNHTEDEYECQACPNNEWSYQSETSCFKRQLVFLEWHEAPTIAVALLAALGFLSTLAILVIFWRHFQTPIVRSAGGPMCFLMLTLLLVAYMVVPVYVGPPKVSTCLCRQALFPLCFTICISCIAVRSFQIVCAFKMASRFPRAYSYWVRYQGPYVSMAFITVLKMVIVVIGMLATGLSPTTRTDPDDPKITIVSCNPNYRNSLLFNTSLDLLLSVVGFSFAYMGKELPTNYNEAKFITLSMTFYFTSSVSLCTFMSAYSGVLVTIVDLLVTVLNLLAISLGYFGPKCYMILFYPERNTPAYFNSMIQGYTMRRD
T1 sequence (Q7RTX0 21-852): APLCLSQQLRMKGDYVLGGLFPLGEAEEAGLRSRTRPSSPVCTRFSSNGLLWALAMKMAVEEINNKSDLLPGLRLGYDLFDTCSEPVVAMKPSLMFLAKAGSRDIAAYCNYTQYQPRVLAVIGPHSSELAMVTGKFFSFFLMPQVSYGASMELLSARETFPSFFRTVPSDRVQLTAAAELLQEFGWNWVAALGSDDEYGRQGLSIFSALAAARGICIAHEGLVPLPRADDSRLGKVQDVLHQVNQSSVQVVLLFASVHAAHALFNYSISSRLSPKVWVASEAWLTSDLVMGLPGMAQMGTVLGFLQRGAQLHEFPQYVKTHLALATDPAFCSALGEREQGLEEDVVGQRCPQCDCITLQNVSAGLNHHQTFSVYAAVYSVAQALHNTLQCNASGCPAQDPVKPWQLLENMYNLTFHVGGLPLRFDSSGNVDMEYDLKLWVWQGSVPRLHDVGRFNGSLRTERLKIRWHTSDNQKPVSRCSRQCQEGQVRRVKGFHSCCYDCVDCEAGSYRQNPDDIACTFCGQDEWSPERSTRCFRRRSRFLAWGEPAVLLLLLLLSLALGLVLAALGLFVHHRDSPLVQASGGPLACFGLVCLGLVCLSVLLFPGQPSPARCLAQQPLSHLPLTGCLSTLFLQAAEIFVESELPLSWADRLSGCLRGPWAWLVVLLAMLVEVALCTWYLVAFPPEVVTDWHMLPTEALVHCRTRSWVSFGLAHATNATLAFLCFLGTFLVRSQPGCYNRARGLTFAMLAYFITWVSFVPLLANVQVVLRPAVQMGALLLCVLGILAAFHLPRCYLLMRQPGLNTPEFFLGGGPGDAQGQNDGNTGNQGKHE
As to conditions: relative sweetness on a weight comparison basis to sucrose (= 1.0); ranges: varied with the concentration of sucrose.

In a further data set the test system is gut hormones. To be noted: humans.
For data set [5] the following is noted: patients with jejunostomy.
The subject of data set [6] is GLP-1. As to conditions: humans.
Data set [7] deals with GLP-1. As to conditions: rats, with a DPP-IV inhibitor.

For `OC[C@H]1O[C@H](O[C@]2(CCl)O[C@H](CCl)[C@@H](O)[C@@H]2O)[C@H](O)[C@@H](O)[C@H]1Cl` [sucralose], the gut hormone release result with gut hormone release [1] and in the data set with gut hormone release [2] was “no effect” throughout.

As for glucagon-like peptide-1 [GLP-1], the “portal:arterial gradient” value in data set [3] is on record as > 2:1.

Take `N[C@@H](CCC(=O)O)C(=O)O` [glutamate]: in [4], the abdominal fat entry was “reduced” and the weight gain entry is on record as “decreased”.

Turning to `C=C1C[C@@]23CC[C@H]4[C@@](C)(CCC[C@@]4(C)C(=O)O[C@@H]4O[C@H](CO)[C@@H](O)[C@H](O)[C@H]4O)[C@@H]2CC[C@]1(O[C@@H]1O[C@H](CO)[C@@H](O)[C@H](O[C@@H]2O[C@H](CO)[C@@H](O)[C@H](O)[C@H]2O)[C@H]1O[C@@H]1O[C@H](CO)[C@@H](O)[C@H](O)[C@H]1O)C3` [Rebaudioside A], the Sweetness/potency at sweet receptor was 242. Also, the “alterations of gut hormones in the circulation” value in the data set on gut hormones is “no alterations”.

As for `Oc1cc(O)c2c(c1)O[C@H](c1cc(O)c(O)c(O)c1)[C@H](O)C2` [Epigallocatechin], the Taste quality entry in the data set on bitter receptor is recorded as “Bitter with sweet”.

`CC1(C)O[C@H]2CC(=O)OC[C@]23[C@H]2CC[C@@](C)([C@@H](O[C@@H]4O[C@H](CO)[C@@H](O)[C@H](O)[C@H]4O)c4ccoc4)[C@@]4(O[C@@H]4C(=O)O)[C@]2(C)C(=O)C[C@@H]13` [Limonin glucoside]: the Taste quality entry with bitter receptor was “Tasteless”.

As for `C[S+]([O-])CCCCN=C=S` (stereo not drawn) [4-Methylsulfinyl butyl isothiocyanate], the Taste quality entry in the data set with bitter receptor is on record as “Acrid mustard oils”.

Take “GLP-2: gut hormone administered to patients with jejunostomy (HADGSFSDEMNTILDNLAARDFINWLIQTKITD; Glucagon-like peptide 2; UniProt P01275 146-178, looked up)”: in data set [5], the “gastric emptying of solids and liquids” value was “prolong”; the “intestinal absorption of energy and intestinal wet weight absorption” value is on record as “improve”.

As for `O=c1c(-c2ccc(O)cc2)coc2cc(O[C@@H]3O[C@H](CO)[C@@H](O)[C@H](O)[C@H]3O)ccc12` [Daidzin], in the data set on bitter receptor, the Taste quality entry was “Astringent”.

For `COc1ccc(-c2cc(=O)c3c(OC)c(OC)c(OC)c(OC)c3o2)cc1OC` [Nobiletin], the Taste quality result in the data set with bitter receptor is “Bitter”.

As to `OCCN1C[C@H](O)[C@@H](O)[C@H](O)[C@H]1CO` [miglitol], in the data set with GLP-1 [6], the “post-prandial GLP-1 levels” value is “increase”. Moreover, the “increase in GLP-1” value in the data set on GLP-1 [7] was “synergistic”.

As to `C[S+]([O-])CCCN=C=S` (stereo not drawn) [3-Methyl-sulfinylpropyl isothiocyanate], the Taste quality entry with bitter receptor is on record as “Acrid mustard oils”.

As to `O=C(O[C@@H]1Cc2c(O)cc(O)cc2O[C@@H]1c1cc(O)c(O)c(O)c1)c1cc(O)c(O)c(O)c1` [Epigallocatechin gallate], in the data set with bitter receptor, the Taste quality entry was “Bitter with sweet”.

As to `O=c1c(-c2ccc(O)cc2)coc2cc(O[C@@H]3O[C@H](CO)[C@@H](O)[C@H](O)[C@H]3O)cc(O)c12` [Genistin], the Taste quality entry in the data set on bitter receptor is given as “Astringent”.

Turning to `COc1ccc(-c2cc(=O)c3c(OC)c(OC)c(OC)cc3o2)cc1OC` [Sinensetin], the Taste quality result in the data set with bitter receptor is given as “Bitter”.

With `C=C[C@H](O)CC(=NOS(=O)(=O)O)S[C@@H]1O[C@H](CO)[C@@H](O)[C@H](O)[C@H]1O` [Progoitrin], the Taste quality entry with bitter receptor is on record as “Bitter”.

For `C=CC1CNC(=S)O1` (stereo not drawn) [Goitrin 5-vinyl-2-oxazolidine thione, 5-vinyl-2-oxazolidine thione], the Taste quality entry in the data set on bitter receptor was “Bitter”.

As to `C=CCC(=NOS(=O)(=O)O)S[C@@H]1O[C@H](CO)[C@@H](O)[C@H](O)[C@H]1O` (stereo in doubt) [Sinigrin], the Taste quality entry with bitter receptor was “Bitter”.

As to `S=C=NCc1ccccc1` [Benzyl isothiocyanate], the Taste quality result in the data set with bitter receptor is recorded as “Acrid mustard oils;”.
